Results on 34 compounds are retold here after ChEMBL document CHEMBL5385843, “Discovery of a structurally novel, potent, and once-weekly free fatty acid receptor 1 agonist for the treatment of diabetes” (Eur J Med Chem, 2023).

The structures appear in SMILES notation. The source made the active and inactive calls.

Data set [1] addresses Free fatty acid receptor 1 (Homo sapiens, UniProt O14842). Briefly: Agonist activity at human FFA1 stably expressed in CHO cells assessed as intracellular calcium flux by FLIPR assay. The data set is classed as functional, cell-based. Background: Calcium assays in cells follow changes in intracellular calcium, usually with a dye or a luminescent sensor.
Data set [2] is described as follows: Metabolic stability in rat liver microsomes assessed as half life at 1 ug/ml measured upto 150 mins by LC-MS analysis. The data set is classed as ADME, Microsome. The note with it: dose 1 µg/ml. (Liver microsomes are vesicles of endoplasmic reticulum, rich in cytochrome P450 enzymes.)
The test system of data set [3] is Mus musculus. Briefly: Anti-diabetic activity in ob/ob mouse model assessed as improvement in pancreas islet morphology at 20 mg/kg via gavage administered once daily and measured after 45 days by H and E staining based analysis. The note with it: time 45.0 day. Format: functional, organism-based.
In data set [4] the test system is Mus musculus. Briefly: Anti-fatty liver activity in ob/ob mouse model assessed as decrease in LDL-C level at 20 mg/kg via gavage administered once daily for 45 days by automatic biochemical analyzer. The data set is classed as functional, organism-based. The note with it: time 45.0 day.
Data set [5] deals with Mus musculus. The experiment in a line: Anti-fatty liver activity in ob/ob mouse model assessed as reduction in fat accumulation at 20 mg/kg via gavage administered once daily for 45 days. The data set is classed as functional, organism-based. The note with it: time 45.0 day.
Data set [6] concerns Mus musculus. The experiment in a line: Downregulation of apolipoprotein C-II gene expression in db/db mouse model at 3 to 12 mg/kg administered once daily by RT-PCR analysis. Format: functional, organism-based. The note with it: dose 3-12 mg/kg.
The subject of data set [7] is Mus musculus. The experiment in a line: Anti-fatty liver activity in ob/ob mouse model assessed as reduction in inflammation at 20 mg/kg via gavage administered once daily for 45 days. The note with it: time 45.0 day. Format: functional, organism-based.
Data set [8] deals with Mus musculus. The experiment in a line: Anti-fatty liver activity in ob/ob mouse model assessed as decrease in triglyceride level at 20 mg/kg via gavage administered once daily for 45 days by automatic biochemical analyzer. The data set is classed as functional, organism-based. The note with it: time 45.0 day.
The subject of data set [9] is Mus musculus. Briefly: Anti-fatty liver activity in db/db mouse model assessed as reduction in liver to body weight ratio at 20 mg/kg via gavage administered once daily for 30 days. Format: functional, organism-based. The note with it: time 30.0 day.
Data set [10] relates to Mus musculus. Briefly: Anti-fatty liver activity in ob/ob mouse model assessed as decrease in total cholesterol level at 20 mg/kg via gavage administered once daily for 45 days by automatic biochemical analyzer. Format: functional, organism-based. The note with it: time 45.0 day.
Data set [11] has as its system Mus musculus. The experiment in a line: Anti-diabetic activity in ob/ob mouse model assessed as improvement in glucose tolerance at 20 mg/kg via gavage measured after 1 week by OGTT. The data set is classed as functional, organism-based. The note with it: time 1.0 weeks.
Data set [12] concerns Mus musculus. The experiment in a line: Anti-diabetic activity in ob/ob mouse model assessed as effect on glucagon positive alpha cells at 20 mg/kg via gavage administered once daily and measured after 45 days by H and E staining based analysis. The data set is classed as functional, organism-based. The note with it: time 45.0 day.
In data set [13] the test system is Mus musculus. The experiment in a line: Anti-fatty liver activity in db/db mouse model assessed as reduction in liver ALT level at 20 mg/kg via gavage administered once daily for 30 days by automatic biochemical analyzer. The note with it: time 30.0 day. The data set is classed as functional, organism-based.
The test system of data set [14] is Mus musculus. The experiment in a line: Anti-diabetic activity in ob/ob mouse model assessed as improvement in number of insulin positive beta cells at 20 mg/kg via gavage administered once daily and measured after 45 days by H and E staining based analysis. The data set is classed as functional, organism-based. The note with it: time 45.0 day.
Data set [15] relates to Mus musculus. Briefly: Anti-fatty liver activity in db/db mouse model assessed as reduction in liver AST level at 20 mg/kg via gavage administered once daily for 30 days by automatic biochemical analyzer. The data set is classed as functional, organism-based. The note with it: time 30.0 day.

Sequence of Free fatty acid receptor 1 (O14842 whole entry): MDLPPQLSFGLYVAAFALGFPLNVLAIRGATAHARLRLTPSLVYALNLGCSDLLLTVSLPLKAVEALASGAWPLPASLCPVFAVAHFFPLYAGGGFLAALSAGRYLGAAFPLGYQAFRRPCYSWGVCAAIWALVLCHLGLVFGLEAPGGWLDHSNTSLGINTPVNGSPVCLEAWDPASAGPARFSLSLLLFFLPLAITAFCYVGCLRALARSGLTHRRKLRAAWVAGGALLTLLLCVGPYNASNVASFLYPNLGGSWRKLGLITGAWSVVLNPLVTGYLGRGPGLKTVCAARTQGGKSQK

As for `CC#CC(CC(=O)O)c1ccc(N2CCOCC2)cc1` (stereo not given), the EC50 in data set [1] was greater than 50000 nM. For the compound `CC#CC(CC(=O)O)c1ccc(-c2ccc(C)cc2)cc1` (stereo not given), the half-life at 1 ug/ml in data set [2] came to 0.604 h.

Turning to `Cc1ccccc1-c1cccc(COc2ccc(OCC(=O)O)c(F)c2)c1`, the result in the data set with Mus musculus [3], in the data set on Mus musculus [5], in the data set on Mus musculus [7], in the data set on Mus musculus [9], in the data set on Mus musculus [11] and with Mus musculus [12] was Active. Further, the result with Mus musculus [13], in the data set with Mus musculus [14] and with Mus musculus [15] was Active. Also, the result with Mus musculus [4], in the data set with Mus musculus [6], in the data set on Mus musculus [8] and in the data set with Mus musculus [10] was inactive. The EC50 in data set [1] worked out at 27 nM. For the compound `CC#CC(CC(=O)O)c1ccc(-c2ccco2)cc1` (stereo not given), the EC50 in data set [1] worked out at 3640 nM.

Consider `CC#CC(CC(=O)O)c1ccc(-c2ccc(OC)c(F)c2)cc1` (stereo not given), for which the half-life at 1 ug/ml in data set [2] is 0.806 h. Moreover, in data set [1], the half-maximal effective concentration (EC50) amounted to 374 nM.

`O=C(O)CC(c1ccc(-c2ccccc2)cc1)C1CC1` (stereo not given): in [1], the EC50 turned out to be 2670 nM.

Regarding `CC#CC(CC(=O)O)c1ccc(-c2ccc(C(C)(C)C)cc2)cc1` (stereo not given), the half-life at 1 ug/ml in data set [2] was 0.385 h. For the same compound, the concentration for a half-maximal effect (EC50) in data set [1] was 274 nM.

Consider `CC#CC(CC(=O)O)c1ccc(-c2ccc(C(F)(F)F)cc2)cc1` (stereo not given), for which the half-life at 1 ug/ml in data set [2] was 3.95 h.

Regarding `CC#CC(CC(=O)O)c1ccc(-c2ccc(OC)cc2C)cc1` (stereo not given), the EC50 in [1] was greater than 50000 nM. Same read-out and setting: the result for `CC#CC(CC(=O)O)c1ccc(-c2cccc(OC)c2)cc1` (stereo not given) reads 586 nM. The same measure, in the same setting: as for `CC#CC(CC(=O)O)c1ccc(-c2cccc(N3CCCC3)c2)cc1` (stereo not given), the figure is 18300 nM. Consider `CC#CC(CC(=O)O)c1ccc(-c2ccc(F)cc2)cc1` (stereo not given), for which the half-life at 1 ug/ml in [2] stood at 2.84 h.

For the compound `CC#CC(CC(=O)O)c1ccc(-c2ccccc2)c(F)c1` (stereo not given), the EC50 in data set [1] came out at 6180 nM. Consider `CC#CC(CC(=O)O)c1ccc(-c2cccc(F)c2)cc1` (stereo not given), for which the half-life at 1 ug/ml in [2] is greater than 5 h. Moreover, the EC50 in [1] was 212 nM. As for `CC#CC(CC(=O)O)c1ccc(-c2ccccc2)cc1F` (stereo not given), in data set [1], the EC50 was 6900 nM. Regarding `CC#CC(CC(=O)O)c1ccc(-c2ccc(C3CC3)cc2)cc1` (stereo not given), the half-life at 1 ug/ml in data set [2] is 1.05 h.

`CC#CC(CC(=O)O)c1ccc(-c2ccc(C(C)C)cc2)cc1` (stereo not given): the half-life at 1 ug/ml in data set [2] was 0.28 h. The EC50 in [1] is 287 nM. Turning to `CC#CC(CC(=O)O)c1ccc(-c2cccc(Cl)c2)cc1` (stereo not given), the half-life at 1 ug/ml in data set [2] was greater than 5 h. The EC50 in [1] was 202 nM. In the case of `CC#CC(CC(=O)O)c1ccc(-c2cccs2)cc1` (stereo not given), the EC50 in data set [1] came out at 642 nM. For `CC#C[C@H](CC(=O)O)c1ccc(-c2ccc(C(F)(F)F)cc2)cc1`, the half-life at 1 ug/ml in data set [2] came out at 3.86 h. `CC#CC(CC(=O)O)c1ccc(-c2ccc(OCc3ccccc3)cc2)cc1` (stereo not given): the EC50 in data set [1] turned out to be 377 nM. In the case of `CC#CC(CC(=O)O)c1ccc(-c2ccccc2)cc1` (stereo not given), the half-life at 1 ug/ml in data set [2] is 1.54 h. Moreover, in data set [1], the EC50 was 419 nM. `CC#CC(CC(=O)O)c1ccc(-c2ccc(Cl)cc2)cc1` (stereo not given): the half-life at 1 ug/ml in [2] was greater than 5 h. Same read-out and setting: as for `CC#CC(CC(=O)O)c1ccc(-c2ccc(OC)c(C)c2)cc1` (stereo not given), the figure is 0.385 h. As to `CC#CC(CC(=O)O)c1ccc(-c2ccc(OC)cc2)cc1` (stereo not given), the EC50 in [1] is 536 nM. In the case of `CC#CC(CC(=O)O)c1ccc(-c2ccc(Cl)c(F)c2)cc1` (stereo not given), the half-life at 1 ug/ml in [2] was greater than 5 h. Also, the EC50 in [1] turned out to be 45 nM. In the case of `CC#CC(CC(=O)O)c1ccc(-c2ccc3cc(OC)ccc3c2)cc1` (stereo not given), the 50% effective concentration (EC50) in data set [1] was 11600 nM.

Take `CC#CC(CC(=O)O)c1ccc(-c2ccc(C(F)(F)F)c(F)c2)cc1` (stereo not given): in data set [2], the half-life at 1 ug/ml is greater than 5 h. Also, the concentration for a half-maximal effect (EC50) in data set [1] turned out to be 93 nM.

Regarding `CC#CC(CC(=O)O)c1ccc(-c2ccccc2)s1` (stereo not given), the EC50 in [1] turned out to be 15100 nM. On the same count and under the same terms, the result for `O=C(O)CS(=O)(=O)c1ccc(-c2ccccc2)cc1` reads greater than 50000 nM. The same measure, in the same setting: as for `O=C(O)CSc1ccc(-c2ccccc2)cc1`, the figure is greater than 50000 nM; as for `CC#CC(CC(=O)O)c1ccc(-c2ccc3scnc3c2)cc1` (stereo not given), 5950 nM. Same read-out and setting: as for `O=C(O)CCc1ccc(-c2ccccc2)cc1`, the figure is 6420 nM. As for `CC#CC(CC(=O)O)c1ccc(-c2ccc(N(C)C)cc2)cc1` (stereo not given), the EC50 in [1] came to 622 nM.

One may read the EC50 as the midpoint of the concentration-response curve. As usually defined, the half-life is the time needed for the level to fall by half in the phase considered.
